Here are results for three molecules from US5627191A, “Therapeutic agents” (The Boots Company PLC, priority 1992, dated 1997).

Where a name gives a salt, the structure may show the parent alone.

The target of data set [1] is T1, adrenal membrane angiotensin II receptor (Oryctolagus cuniculus, UniProt P34976).
T1 construct: Aliquots of rabbit adrenal membranes containing 10-30 μg protein were incubated; from tissue; host or cells: adrenal gland membranes of male New Zealand white rabbits
T1 sequence (P34976 1-359): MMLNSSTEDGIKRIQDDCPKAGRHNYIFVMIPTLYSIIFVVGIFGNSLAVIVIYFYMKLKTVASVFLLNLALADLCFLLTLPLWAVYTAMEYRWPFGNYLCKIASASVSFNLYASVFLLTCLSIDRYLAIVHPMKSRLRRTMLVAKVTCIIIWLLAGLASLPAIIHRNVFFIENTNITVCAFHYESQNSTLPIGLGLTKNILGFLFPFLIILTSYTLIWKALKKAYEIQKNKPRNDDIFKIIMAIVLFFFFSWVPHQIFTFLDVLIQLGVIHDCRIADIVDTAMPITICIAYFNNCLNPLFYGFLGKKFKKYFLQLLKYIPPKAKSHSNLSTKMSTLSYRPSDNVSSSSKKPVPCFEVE
The experiment in a line: Test A: binding affinity to the adrenal membrane angiotensin II receptor in vitro. Further details: species or system rabbit (male New Zealand white). Conditions: rabbit adrenal membranes, 0.05 nM [^125 I]angiotensin II, 60 minutes at 25° C.; read-out: Ki from Test A. The procedure: In test A the binding affinity of compounds to the adrenal membrane angiotensin II receptor was determined in vitro and in tests B and C the antihypertensive effect of the compounds was measured in vivo. A detailed description of the tests follows. Test A 1) Preparation of Membranes Adrenal glands from male New Zealand white rabbits were homogenised on ice in 20 mM aqueous sodium bicarbonate solution containing 50 μM PMSF (phenylmethanesulphonyl fluoride) (2 ml/g wet weight) using a Polytron (Trademark) homogeniser for 3×15 seconds at setting 8. The homogenate was centrifuged at 900 g for 10 minutes at 4° C. and the pellet was discarded. The supernatant was recentrifuged at 30000 g for 30 minutes at 4° C., and the resulting pellet was resuspended in assay buffer (50 mM Tris-HCl, pH 7.4, containing 1 mM EDTA, 6.5 mM MgCl2, 125 mM NACl, 50 μM PMSF, 5 μg/ml pepstatin and 50 μg/ml each of leupeptin, antipain, aprotinin and chymostatin): 10 ml per g original tissue wet weight. Polyethylene glycol was added (final concentration 30%) as a cryopreservant and the membrane preparation divided into aliquots and stored at -80° C. until required. Protein was determined by a modification of the method of Lowry (Markwell et al, (1978) Anal. Biochem., 87: 206-210). 2) Binding Assay Aliquots of rabbit adrenal membranes containing 10-30 μg protein were incubated with 0.05 nM [^125 I]angiotensin II in the presence or absence of potential angiotensin II antagonists in 1 ml polyamide tubes in a total volume of 200 μI assay buffer. After incubation for 60 minutes am 25° C. the reaction was terminated by the addition of ice-cold assay buffer, and the bound and free radioactivity was separated through Skatron (Trademark) receptor-binding filters, pre-wetted with assay buffer, using a Skatron cell harvester. The filters were washed with ice-cold phosphate buffered saline, dried, and the trapped radioactivity was determined using a gamma counter. Non-specific binding, measured in the presence of 2 μM unlabelled angiotensin II, was subtracted from total binding to obtain specific binding. Radioligand binding curves were analysed using EBDA and LIGAND (Cambridge Biosoft). Values for binding affinity were obtained by nonlinear regression analysis of untransformed data. The activities of the compounds described in the Examples given hereinafter are set out below in Table A, Column 1.

The nature of data set [2]: Hygroscopicity observed in preparation. Conditions: dried before use by heating in vacuo. The class given is physicochemical.
Data set [3] relates to Aoki-Okamoto strain of spontaneously hypertensive rat. The experiment in a line: Test C: oral antihypertensive effect after pretreatment with bendrofluazide, threshold dose. The data set is classed as in vivo. Conditions: pretreated with bendrofluazide 10 mg/kg at 16 hours and 2 hours prior to dose. The procedure:
(§1) In test A the binding affinity of compounds to the adrenal membrane angiotensin II receptor was determined in vitro and in tests B and C the antihypertensive effect of the compounds was measured in vivo. A detailed description of the tests follows.
(§2) Female rats, weight range 180-240 g, of the Aoki-Okamoto strain of spontaneously hypertensive rat were used. The rats in groups of four were fasted overnight before administration of the test compound. Blood pressure was determined in the following way. The rats were placed in a cabinet kept at 38° C. with their tails protruding through holes in the cabinet. After 30 minutes in the cabinet blood pressure was measured using an inflatable cuff placed round the base of the mail and arterial pulsations monitored with a pneumatic pulse transducer. […] The pressure in the cuff at which arterial pulsations reappeared was taken as the blood pressure. The rats were removed from the cabinet and each group orally dosed with a given dose of the test compound given as a solution or suspension in 0.25% aqueous carboxymethylcellulose. In addition to the predose reading, blood pressure was measured at 1.5 and 5.0 hours after dosing. The degree of blood pressure reduction sufficient to achieve a significance level of p<0.01 compared to controls was 9% after correction for control changes at appropriate time intervals. Thus, compounds were considered to be active in this test if they produced a reduction of blood pressure after correction of 9% or greater than 9%.
(§3) Threshold antihypertensive doses of compounds of formula I were determined in the following way. Compounds were tested initially at a particular dose level, for example 90 mg/kg.
The procedure of Test B above was carried out subject to the modification of pretreating the rats with bendrofluazide 10 mg/kg (an orally administered diuretic) at 16 hours and 2 hours prior to the dose of the test compound, to ensure activation of the reninangiotensin system.
The activities of the compounds described in the Examples given hereinafter are set out below in Table A, Column 3.

Data set [4] has the same test system. The experiment in a line: Test B: oral antihypertensive effect, threshold dose. Conditions: Rattus norvegicus, po, 5 h, dose giving a reduction of blood pressure of between 9 and 16% after correction, 1.5 and 5.0 hours after dosing, read-out: Threshold anti-hypertensive dose from Test B. The class given is in vivo. The procedure: as §1, §2, §3
The activities of the compounds described in the Examples given hereinafter are set out below in Table A, Column 2.

The Ki is the dissociation constant of the complex between target and ligand, obtained from inhibition or displacement.

On to `CCc1nc2c(C)cc(C)nc2n1Cc1ccc(-c2ccccc2-c2c(N(C)C)c(=O)c2=O)cc1` [Example 16, 3-dimethylamino-4-[4'-(2-ethyl-5,7-dimethyl-3H-imidazo-[4,5-b]pyrid-3-ylmethyl)biphenyl-2-yl]cyclobut-3-ene-1,2-dione], for which the Ki in data set [1] turned out to be 1890 nM. For the same molecule, the hygroscopic entry in data set [2] is reported as “appeared to be hygroscopic”.

As for `CCc1nc2c(C)cc(C)nc2n1Cc1ccc(-c2ccccc2-c2c(OC(C)OC(=O)C(C)(C)C)c(=O)c2=O)cc1` (stereo not shown) [Example 17, 1-[2-[4'-(2-ethyl-5,7-dimethyl-3H-imidazo[4,5-b]pyrid-3-ylmethyl)biphenyl-2-yl]-3,4-dioxocyclobut-1-en-1-yloxy]ethyl pivalate 0.22 ethyl acetate solvate], in data set [1], the Ki amounted to 21.5 nM. For the same molecule, in data set [2], the hygroscopic entry is reported as “appeared to be hygroscopic”.

With `CCCCc1nc(Cl)c(C(=O)O)n1Cc1ccc(-c2ccccc2-c2c(O)c(=O)c2=O)cc1` [Example 29, 2-butyl-4-chloro-1-[2'-(2-hydroxy-3,4-dioxocyclobut-1-en-1-yl)biphenyl-4-ylmethyl]-1H-imidazole-5-carboxylic acid 0.4 hydrochloride], the Ki in data set [1] came out at 13.7 nM. Moreover, in data set [3], the “Threshold anti-hypertensive dose from Test C” value was determined as 3 mg/kg. For the same molecule, in data set [4], the minimal effective dose was greater than 3 mg/kg.
